From patent US9629362B1, “Methods for killing insects using methyl benzoate” (The United States of America, as represented by the …, priority 2016, dated 2017)
Entries after “also recorded” stand apart in the source; their conditions may differ. Read-outs that look alike come from different tables or passages of the source. Marks after values point to notes of the source that are not given here.

Key:
D. suzukii = assay: Oviposition deterrent / adult toxicity of MB and other VOCs on pre-treated blueberries; type: in vivo, Drosophila suzukii; conditions: for Activity against adult D. suzukii: 2 days exposure to pre-treated blueberries; for Toxicity / mortality against adult D. suzukii: blueberries soaked 2 h, 48 h (2 days) exposure; for Adults emerged from pre-treated berries / Pupae developed from pre-treated berries compared with blank control: further 10 days incubation at room temperature
Experimental: Mortality assessed after 48 hrs exposure to pre-treated blueberries (60 berries/treatment, 1% solution soaking for 2 hr) as described below.
Numbers assessed after 10 days incubation at room temperature as described below.
Mortality assessed after 48 hrs exposure to pre-treated blueberries (60 berries/treatment, soaking for 2 hr) as described below.
Numbers assessed after 10 days incubation at room temperature.
(§1) Laboratory bioassay: Bioassays were conducted in USDA Beltsville laboratory at 25° C., 60% RH, under a 16L:8D photoperiod with ˜1700 lux light illuminance. A fume hood was maintained at same conditions with face velocity at 129 FPM. The plastic cups (32 oz, diameter 4.5 inches, deep 5 inches, or 16 oz, diameter 4.5 inches, deep 2.5 inches) were purchased from papermart.com (CA). The cover was cut into a 80 mm diameter hole and glued with an 85 mm diameter Nylon screen mesh (81×81 per inch) mesh size, BioQuip, CA). The polystyrene vials (height 95 mm, diameter 28.5 mm) and plugs were obtained from Fisher Scientific (Pittsburg, Pa.). The plastic cage (30×30×30 cm) was purchased from BugDorm (Rancho Dominguez, Calif.). Glass vial (20 mL), glass spray bottle (Amber glass with spray top, 30 mL), Petri dish (9 cm diameter), and Whatman filter paper (90 mm diameter) were obtained from VWR (Atlanta, Ga.). Deionized water (DI) containing 1% emulsifier (v/v), Tween 20 and Tween 80, at 1.1 ratio was used to make different VOCs water solutions and also used as blank control.
Evaluation of MB and other VOCs as oviposition deterrent against D. suzukii: To examine the oviposition deterrent property of MB and other essential oils against D. suzukii, 10 blueberries were separately dipped in 100 mL MB or other essential oil aqueous emulsions at 1% concentration for 2 h. Another 10 blueberries were dipped in 100 mL DI water for 2 h as control. The blueberries were separately placed on different Petri dishes and allowed to air dry for 2 h. After a Petri dish containing 10 treated blueberries was put into a plastic cup (32 oz), 10 mixed sex adults D. suzukii were subsequently introduced into each cup. Mortality of the D. suzukii was examined after 48 h. After removing all insects, the blueberries were maintained at room temperature for another 10 days. Present of adults were subsequently assessed and development of larvae and pupae was further inspected by dissection of the berries.

H. halys nymphs = assay: Toxicity of MB against H. halys nymphs (treated filter paper in glass vial); type: in vivo, Halyomorpha halys; conditions: mortality after 24 hr
Experimental: Toxicity of MB against H. halys nymphs: The bioassays were carried out in glass vials (20 mL). Filter paper was cut into round shaped pieces (2.4 cm diameter). 50 μL MB acetone solution with different concentrations was loaded onto the filter paper evenly, and the filter paper was dried for 1 min and then put into the bottom of the vial. A small piece of green bean was put on the filter paper in the vial as food source. Different stages of H. halys nymphs were introduced into the vial and capped with a cotton ball. For each stage, 30 nymphs were used for each amount of MB loading. For the nymphs of the first instar, 10 nymphs were put into 1 vial. For the nymphs of the second and third instar, 5 nymphs were put into 1 vial. For the nymphs of the fourth instar, 3 nymphs were put into 1 vial. For the nymphs of the fifth instar, 2 nymphs were put into 1 vial. The mortality was assessed after 24 hr.
(§2) Data analysis: Comparisons of different treatments were analyzed using one-way ANOVA followed by Ryan-Eibot-Gabriel-Welsch F test (SPSS 10.0 for Windows (George, D., and P. Mallery, SPSS for Windows step by step: A simple guide and reference, 4th edition, Allyn & Bacon, 2002)) for significance at α=0.05.

P. xylostella eggs = type: in vivo
Experimental: (§3) Ovicidal toxicity of MB and commercial pesticides: The aqueous solutions of MB with designated concentrations and commercially available pesticides with different concentrations of active ingredient (AI) were separately stored in glass spray bottles. The eggs (10 for H. halys and M. sexta, 100 for P. xylostella) were laid on filter papers in Petri dishes. Different aqueous solutions were sprayed on the surfaces of different eggs three times (˜0.5 mL) to completely cover the treatment areas. Then Petri dishes were covered with lids and maintained in a fume hood for 10 days. The Petri dishes were then inspected for presence of nymph/larvae development or numbers of unhatched eggs.
as §2

H. halys eggs = type: in vivo
Experimental: as §3, §2

M. sexta eggs = type: in vivo
Experimental: as §3, §2

Drosophila suzukii = assay: Impact of MB on D. suzukii control: pre-infested blueberries dipped in MB emulsion; type: in vivo; conditions: 1% MB, berries pre-infested 4 days, dipped 2 h, 10 days incubation at room temperature
Experimental: Assessment was conducted after 10 days incubation at room temperature.
as §1, with “Deionized water (DI) containing 1% emulsifier (v/v), Tween 20 and Tween 80, at 1.1 ratio was used to make different VOCs water solutions and also used as blank control.” left out
Impact of MB on D. suzukii control: To investigate the acute toxicity of MB against D. suzukii, 100 blueberries were placed in a plastic cage (30×30×30 cm) and infested by 100 mixed sex adult D. suzukii for 4 days. […] Present of adults were then subsequently assessed and development of larvae and pupae was further inspected by dissection of the berries. […]

[1] = by ingestion and inhalation; cited from earlier work

COC(=O)c1ccccc1 [MB, methyl benzoate]
Activity against adult D. suzukii (D. suzukii; 0.1% MB): no significant activity
Activity against adult D. suzukii (D. suzukii; 0.5% MB): Little activity
Toxicity / mortality against adult D. suzukii (D. suzukii; 1% solution): complete mortality; also recorded: potent activity
Toxicity / mortality against adult D. suzukii (D. suzukii; 1% solution, listed as methyl benzoate): complete mortality
Adults emerged from pre-treated berries (D. suzukii; 1% solution): no adults emerged
Pupae developed from pre-treated berries compared with blank control (D. suzukii; 1% solution): significantly fewer pupae developed
Activity against adult D. suzukii (D. suzukii; 5% MB): potent activity
Adults emerged from pre-treated berries (D. suzukii; 5% MB): no adults emerged
Pupae developed from pre-treated berries compared with blank control (D. suzukii; 5% MB): significantly fewer pupae developed
LC50 (95% CL) (H. halys nymphs; 1st instar nymphs): 1.03 (0.93-1.10) μL/via1
LC50 (95% CL) (H. halys nymphs; 2nd instar nymphs): 1.01 (0.86-1.12) μL/via1
LC50 (95% CL) (H. halys nymphs; 3rd instar nymphs): 1.23 (1.12-1.33) μL/via1
LC50 (95% CL) (H. halys nymphs; 4th instar nymphs): 2.39 (2.19-2.60) μL/via1
LC50 (95% CL) (H. halys nymphs; 5th instar nymphs): 1.77 (1.60-1.93) μL/via1
Dose needed to reach 100% egg mortality (P. xylostella eggs; P. xylostella eggs): 0.0064 mg/cm^2
Hatchability (%) (mean ± SE) (P. xylostella eggs; P. xylostella eggs, MB 0.025%, AI dose 0.0016 mg/cm^2, 10 days exposure): 38 ± 5.5^c %
Hatchability (%) (mean ± SE) (P. xylostella eggs; P. xylostella eggs, MB 0.05%, AI dose 0.0032 mg/cm^2, 10 days exposure): 13 ± 5.0^ab %
Hatchability (%) (mean ± SE) (P. xylostella eggs; P. xylostella eggs, MB 0.1%, AI dose 0.0064 mg/cm^2, 10 days exposure): 0 ± 0.3^a %
Hatchability (%) (mean ± SE) (P. xylostella eggs; P. xylostella eggs, MB 0.25, AI dose 0.0159 mg/cm^2, 10 days exposure): 1 ± 0.0^a %
Hatchability (%) (mean ± SE) (P. xylostella eggs; P. xylostella eggs, MB 0.5%, AI dose 0.0318 mg/cm^2, 10 days exposure): 0 ± 0.0^a %
Hatchability (%) (mean ± SE) (P. xylostella eggs; P. xylostella eggs, MB 1%, AI dose 0.0637 mg/cm^2, 10 days exposure): 0 ± 0.0^a %
Ovicidal activity in words (P. xylostella eggs; P. xylostella eggs, MB at as low as 0.0032 mg/cm^2 dose): potent ovicidal activity
Dose for 100% egg mortality of P. xylostella: times less than H. halys eggs needed (P. xylostella eggs; P. xylostella vs H. halys eggs): 10 times
Dose for 100% egg mortality of P. xylostella: times less than M. sexta eggs needed (P. xylostella eggs; P. xylostella vs M. sexta eggs): 20 times
LC50 (95% CL) (P. xylostella eggs; in vivo): 0.001 mg/cm^2
LC95 (95% CL) (P. xylostella eggs; in vivo): 0.005 mg/cm^2
Dosage (active ingredient) needed to reach 100% egg mortality (H. halys eggs; H. halys eggs): 0.0637 mg/cm^2
Hatchability (%) (mean ± SE) (H. halys eggs; H. halys eggs, MB 0.025%, AI dose 0.0016 mg/cm^2, 10 days exposure): 67 ± 8.8^d %
Hatchability (%) (mean ± SE) (H. halys eggs; H. halys eggs, MB 0.05%, AI dose 0.0032 mg/cm^2, 10 days exposure): 63 ± 17.6^cd %
Hatchability (%) (mean ± SE) (H. halys eggs; H. halys eggs, MB 0.1%, AI dose 0.0064 mg/cm^2, 10 days exposure): 60 ± 10.0^cd %
Hatchability (%) (mean ± SE) (H. halys eggs; H. halys eggs, MB 0.25, AI dose 0.0159 mg/cm^2, 10 days exposure): 43 ± 6.7^abcd %
Hatchability (%) (mean ± SE) (H. halys eggs; H. halys eggs, MB 1%, AI dose 0.0637 mg/cm^2, 10 days exposure): 0 ± 0.0^a %
Hatchability (%) (mean ± SE) (H. halys eggs; H. halys eggs, MB 2%, AI dose 0.1273 mg/cm^2, 10 days exposure): 0 ± 0.0^a %
Hatchability (%) (mean ± SE) (H. halys eggs; H. halys eggs, MB 4%, AI dose 0.2546 mg/cm^2, 10 days exposure): 0 ± 0.0^a %
Ovicidal potency compared with commercial pesticides, in words (H. halys eggs; H. halys eggs, MB at 0.0318 mg/cm^2 vs deltamethrin 0.0019, ζ-cypermethrin 0.0223, carbaryl 0.0080, β-cyfluthrin 0.1592, sulfur/pyrethrin 0.6525, organic essential oil product 0.3979 mg/cm^2): as potent as
LC95 (95% CL) (H. halys eggs; H. halys eggs, spray, 10 days): 0.048 mg/cm^2
Hatchability (%) (mean ± SE) (H. halys eggs; in vivo): 17 ± 12.0^ab %
LC50 (95% CL) (H. halys eggs; in vivo): 0.020 mg/cm^2
Times more toxic than organic commercial product (2-phenethyl propionate, clover oil, rosemary oil, thyme oil) (H. halys eggs; in vivo): 12 times
Times more toxic than sulfur & pyrethrin mixture (H. halys eggs; in vivo): 20 times
Times more toxic than the conventional pyrethroid (β-cyfluthrin) (H. halys eggs; in vivo): 5 times
Ovicidal toxicity compared with commercial pesticides, in words (M. sexta eggs; M. sexta eggs, MB 0.0637 mg/cm^2 vs bifenthrin & ζ-cypermethrin 0.0239 and essential oil product 0.3979 mg/cm^2): significantly better
Hatchability (%) (mean ± SE) (M. sexta eggs; M. sexta eggs, MB 0.025%, AI dose 0.0016 mg/cm^2, 10 days exposure): 67 ± 8.8^c %
Hatchability (%) (mean ± SE) (M. sexta eggs; M. sexta eggs, MB 0.05%, AI dose 0.0032 mg/cm^2, 10 days exposure): 63 ± 8.8^c %
Hatchability (%) (mean ± SE) (M. sexta eggs; M. sexta eggs, MB 0.1%, AI dose 0.0064 mg/cm^2, 10 days exposure): 50 ± 17.3^c %
Hatchability (%) (mean ± SE) (M. sexta eggs; M. sexta eggs, MB 0.25, AI dose 0.0159 mg/cm^2, 10 days exposure): 40 ± 15.3^c %
Hatchability (%) (mean ± SE) (M. sexta eggs; M. sexta eggs, MB 0.5%, AI dose 0.0318 mg/cm^2, 10 days exposure): 20 ± 10.0^abc %
Hatchability (%) (mean ± SE) (M. sexta eggs; M. sexta eggs, MB 1%, AI dose 0.0637 mg/cm^2, 10 days exposure): 3 ± 3.35^ab %
Hatchability (%) (mean ± SE) (M. sexta eggs; M. sexta eggs, MB 2%, AI dose 0.1273 mg/cm^2, 10 days exposure): 0 ± 0.0^a %
Hatchability (%) (mean ± SE) (M. sexta eggs; M. sexta eggs, MB 4%, AI dose 0.2546 mg/cm^2, 10 days exposure): 0 ± 0.0^a %
LC50 (95% CL) (M. sexta eggs; M. sexta eggs, spray, 10 days): 0.015 mg/cm^2
LC95 (95% CL) (M. sexta eggs; M. sexta eggs, spray, 10 days): 0.060 mg/cm^2
Toxicity against M. sexta eggs in words (M. sexta eggs; MB at 0.0637 mg/cm^2 dose): potent toxic agent
Larvae/pupae development and adult emergence from pre-infested blueberries (Drosophila suzukii): no larvae and pupae developed or adult flies emerged
Mortality of D. suzukii in pre-infested blueberries (Drosophila suzukii): complete mortality
Human toxicity [1]: low to moderate human toxicity
